Measurements taken from ChEMBL document CHEMBL5120900, “Structure-Based Discovery of a Series of NSD2-PWWP1 Inhibitors” (J Med Chem, 2022).

target: T1, Histone-lysine N-methyltransferase NSD3 (Homo sapiens, UniProt Q9BZ95); test: Binding affinity to NSD3 (unknown origin) assessed as dissociation constant
T1 sequence (Q9BZ95 whole entry): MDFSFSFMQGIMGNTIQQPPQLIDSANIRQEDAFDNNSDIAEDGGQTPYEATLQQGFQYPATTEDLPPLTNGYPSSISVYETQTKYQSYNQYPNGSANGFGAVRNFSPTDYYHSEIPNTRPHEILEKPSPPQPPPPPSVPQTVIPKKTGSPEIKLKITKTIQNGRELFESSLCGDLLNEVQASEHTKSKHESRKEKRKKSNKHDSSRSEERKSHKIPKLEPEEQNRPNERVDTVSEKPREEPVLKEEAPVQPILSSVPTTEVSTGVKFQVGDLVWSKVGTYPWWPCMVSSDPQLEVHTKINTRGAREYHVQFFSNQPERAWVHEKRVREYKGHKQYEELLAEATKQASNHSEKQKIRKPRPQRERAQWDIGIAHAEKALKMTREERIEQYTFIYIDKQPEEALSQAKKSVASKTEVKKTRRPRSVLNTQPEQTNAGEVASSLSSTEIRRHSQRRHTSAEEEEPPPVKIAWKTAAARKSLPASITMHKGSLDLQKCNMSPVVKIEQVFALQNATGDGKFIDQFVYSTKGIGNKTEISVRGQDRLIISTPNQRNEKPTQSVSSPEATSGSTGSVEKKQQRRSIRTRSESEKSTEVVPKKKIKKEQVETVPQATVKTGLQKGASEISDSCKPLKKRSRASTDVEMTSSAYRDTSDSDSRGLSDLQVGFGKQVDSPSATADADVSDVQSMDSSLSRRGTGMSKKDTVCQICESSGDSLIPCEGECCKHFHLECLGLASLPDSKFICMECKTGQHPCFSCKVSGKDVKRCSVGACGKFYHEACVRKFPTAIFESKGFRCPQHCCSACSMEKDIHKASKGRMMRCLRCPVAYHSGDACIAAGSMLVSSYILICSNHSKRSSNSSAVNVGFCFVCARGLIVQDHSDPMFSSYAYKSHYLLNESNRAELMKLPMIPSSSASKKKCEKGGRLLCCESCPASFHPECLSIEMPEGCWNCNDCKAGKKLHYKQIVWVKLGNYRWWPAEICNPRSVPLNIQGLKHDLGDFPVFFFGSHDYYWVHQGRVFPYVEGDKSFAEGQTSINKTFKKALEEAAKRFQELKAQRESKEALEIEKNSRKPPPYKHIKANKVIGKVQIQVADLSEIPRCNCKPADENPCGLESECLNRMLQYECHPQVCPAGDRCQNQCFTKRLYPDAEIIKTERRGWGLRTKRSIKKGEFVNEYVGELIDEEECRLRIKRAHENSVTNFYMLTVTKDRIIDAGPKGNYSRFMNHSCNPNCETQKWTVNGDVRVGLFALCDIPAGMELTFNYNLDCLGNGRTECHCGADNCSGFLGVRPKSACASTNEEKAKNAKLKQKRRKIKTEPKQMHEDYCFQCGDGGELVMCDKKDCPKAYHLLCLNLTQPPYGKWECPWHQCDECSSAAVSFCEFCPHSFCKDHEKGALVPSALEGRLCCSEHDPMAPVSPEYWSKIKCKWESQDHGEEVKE

Row | Kd | Compound
1 | 0.091 µM | N#Cc1ccc(C(=O)N(Cc2cccs2)C2CC2)cc1

target: T2, Histone-lysine N-methyltransferase NSD2 (Homo sapiens, UniProt O96028); test: Binding affinity to N-terminal His6/Sumo-tagged NSD2 PWWP1 domain (211 to 350 residues) (unknown origin) expressed in Escherichia coli BL21 (DE3) using ATKAARKSAPATGGV-Lys (me)2-KPHRYRPG polypeptide as substrate incubated for 3 hrs by HTRF assay
T2 sequence (O96028 whole entry): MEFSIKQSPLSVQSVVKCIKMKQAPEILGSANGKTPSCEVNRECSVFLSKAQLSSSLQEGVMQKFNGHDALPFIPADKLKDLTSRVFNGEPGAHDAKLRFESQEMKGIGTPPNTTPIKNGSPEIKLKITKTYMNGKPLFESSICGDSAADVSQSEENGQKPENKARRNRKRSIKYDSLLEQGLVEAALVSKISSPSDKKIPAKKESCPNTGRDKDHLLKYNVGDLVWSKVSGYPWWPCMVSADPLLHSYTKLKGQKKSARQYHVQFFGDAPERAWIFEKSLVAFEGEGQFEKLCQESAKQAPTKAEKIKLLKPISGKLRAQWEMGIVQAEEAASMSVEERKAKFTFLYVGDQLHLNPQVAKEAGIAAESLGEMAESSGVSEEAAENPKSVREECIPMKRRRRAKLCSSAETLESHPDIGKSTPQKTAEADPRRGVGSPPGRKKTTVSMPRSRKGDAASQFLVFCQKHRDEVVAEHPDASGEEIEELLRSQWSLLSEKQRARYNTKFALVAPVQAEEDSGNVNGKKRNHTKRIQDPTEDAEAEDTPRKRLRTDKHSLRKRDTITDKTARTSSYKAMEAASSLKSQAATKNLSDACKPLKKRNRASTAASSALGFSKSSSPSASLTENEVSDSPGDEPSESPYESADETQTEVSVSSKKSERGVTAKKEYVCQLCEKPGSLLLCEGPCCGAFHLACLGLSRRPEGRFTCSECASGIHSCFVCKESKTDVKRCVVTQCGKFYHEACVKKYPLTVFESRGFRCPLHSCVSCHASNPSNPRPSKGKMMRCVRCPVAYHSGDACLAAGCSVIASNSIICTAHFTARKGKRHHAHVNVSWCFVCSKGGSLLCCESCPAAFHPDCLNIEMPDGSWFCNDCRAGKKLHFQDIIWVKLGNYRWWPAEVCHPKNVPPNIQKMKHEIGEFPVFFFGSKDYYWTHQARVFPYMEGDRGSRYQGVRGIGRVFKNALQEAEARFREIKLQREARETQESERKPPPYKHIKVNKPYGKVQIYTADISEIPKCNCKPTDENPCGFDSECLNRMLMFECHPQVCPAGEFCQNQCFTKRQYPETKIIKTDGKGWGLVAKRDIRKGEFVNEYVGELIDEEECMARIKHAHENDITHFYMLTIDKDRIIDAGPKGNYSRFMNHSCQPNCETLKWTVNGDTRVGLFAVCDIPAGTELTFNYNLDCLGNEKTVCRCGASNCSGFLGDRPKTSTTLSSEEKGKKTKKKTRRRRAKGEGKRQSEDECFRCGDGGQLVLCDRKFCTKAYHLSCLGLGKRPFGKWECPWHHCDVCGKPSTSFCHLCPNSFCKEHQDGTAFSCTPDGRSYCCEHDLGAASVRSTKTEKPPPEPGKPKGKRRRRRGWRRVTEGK

Row | Compound | IC50
2 | Cc1cc(CN)ccc1-c1ncn(C)c1-c1ccc(C#N)cc1 | 4.68 µM
3 | Cn1cnc(-c2ccc(CN)cc2Cl)c1-c1ccc(C#N)cc1 | 6.11 µM
4 | Cc1cc(CN)cc(C)c1-c1ncn(C)c1-c1ccc(C#N)cc1 | 0.57 µM
5 | CNc1cc(-c2c(-c3c(C)cc(CN)cc3C)ncn2C)ccc1C#N | > 20 µM
6 | Cc1cc(CN)cc(C)c1-c1ncn(C)c1-c1ccc(C#N)c(N)c1 | 8.78 µM
7 | Cc1cc(CN)cc(C)c1-c1ncn(C)c1-c1ccc(C#N)c2ncccc12 | 1.58 µM
8 | Cc1cc(CN)cc(C)c1-c1ncn(C)c1-c1ccc(C#N)c(F)c1 | 2.91 µM
9 | COc1cc(CN)cc(OC)c1-c1ncn(C)c1-c1ccc(C#N)cc1 | 4.44 µM
10 | Cc1cc(CNC(=O)OC(C)(C)C)cc(C)c1-c1ncn(C)c1-c1ccc(C#N)c2ccccc12 | 1.67 µM
11 | Cc1cc(CN)cc(C)c1-c1ncn(C)c1-c1ccc(C#N)c(Cl)c1 | 5.03 µM
12 | Cn1cnc(-c2ccc(CN)cc2)c1-c1ccc(C#N)cc1 | 13.9 µM
13 | Cn1cnc(-c2ccc(CN)cc2F)c1-c1ccc(C#N)cc1 | 11.2 µM
14 | Cc1cc(CN)cc(C)c1-c1ncn(C)c1-c1ccc(C#N)c(C(F)(F)F)c1 | 15.4 µM
15 | Cn1cnc(-c2ccc(CN)cc2C(F)(F)F)c1-c1ccc(C#N)cc1 | 6.01 µM
16 | Cc1cc(NC(=O)OC(C)(C)C)cc(C)c1-c1ncn(C)c1-c1ccc(C#N)c2ccccc12 | > 25 µM
17 | COc1cc(-c2c(-c3c(C)cc(CN)cc3C)ncn2C)ccc1C#N | 10.9 µM
18 | COc1cc(CN)ccc1-c1ncn(C)c1-c1ccc(C#N)cc1 | 12 µM

Now from value to compound:

Row | IC50 | Compound
19 | 13.8 µM | Cc1cc(CO)cc(C)c1-c1ncn(C)c1-c1ccc(C#N)c2ccccc12
20 | 3.84 µM | Cc1cc(CN2CCOCC2)cc(C)c1-c1ncn(C)c1-c1ccc(C#N)c2ccccc12
21 | 10.6 µM | Cc1cc(N)cc(C)c1-c1ncn(C)c1-c1ccc(C#N)c2ccccc12
22 | 0.62 µM | Cc1cc(CNCCN)cc(C)c1-c1ncn(C)c1-c1ccc(C#N)c2ccccc12
23 | 0.43 µM | Cc1cc(CNC2CC2)cc(C)c1-c1ncn(C)c1-c1ccc(C#N)c2ccccc12
24 | 0.7 µM | CCNCc1cc(C)c(-c2ncn(C)c2-c2ccc(C#N)c3ccccc23)c(C)c1
25 | 8.07 µM | Cc1cc(CN2CCN(C(=O)OC(C)(C)C)CC2)cc(C)c1-c1ncn(C)c1-c1ccc(C#N)c2ccccc12
26 | 1.49 µM | Cc1cc(CN2CCCCC2)cc(C)c1-c1ncn(C)c1-c1ccc(C#N)c2ccccc12
27 | 8.05 µM | Cc1cc(CN2CCC(NC(=O)OC(C)(C)C)CC2)cc(C)c1-c1ncn(C)c1-c1ccc(C#N)c2ccccc12
28 | 2.07 µM | Cc1cc(CN2CCCC2)cc(C)c1-c1ncn(C)c1-c1ccc(C#N)c2ccccc12
29 | > 24 µM | CCC(O)c1cc(C)c(-c2ncn(C)c2-c2ccc(C#N)c3ccccc23)c(C)c1 (configuration not stated)
30 | 0.64 µM | Cc1cc(CNC(C)(C)C)cc(C)c1-c1ncn(C)c1-c1ccc(C#N)c2ccccc12
31 | > 21 µM | Cc1cc(C=O)cc(C)c1-c1ncn(C)c1-c1ccc(C#N)c2ccccc12
32 | > 20 µM | Cc1cc(C#N)cc(C)c1-c1ncn(C)c1-c1ccc(C#N)c2ccccc12
33 | 0.52 µM | Cc1cc(CN)cc(C)c1-c1ncn(C)c1-c1ccc(C#N)c2ccccc12
34 | 1.89 µM | Cc1cc(CN2CCNCC2)cc(C)c1-c1ncn(C)c1-c1ccc(C#N)c2ccccc12
35 | 2 µM | Cc1cc(CN2CCC(N(C)C)C2)cc(C)c1-c1ncn(C)c1-c1ccc(C#N)c2ccccc12 (configuration not stated)
36 | 0.52 µM | Cc1cc(CN2CCC(O)C2)cc(C)c1-c1ncn(C)c1-c1ccc(C#N)c2ccccc12 (configuration not stated)
37 | > 22 µM | CCC(=O)c1cc(C)c(-c2ncn(C)c2-c2ccc(C#N)c3ccccc23)c(C)c1
